Experimental data as given in the supplement of paper PMC11061612.

Legend:
Experiment in all cases: combination Emax (second highest fraction inhibited in the dose matrix, 72 h); higher = more inhibition; extreme values may be limits of the assay
[1] = system: CTV-1 (T-Lymphoblastic Leukemia)
How it was run: (§1)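 After 24 hours at 37°C and 5% CO2 in 1536-well plates, cells in DMEM/F12 or RPMI plus 10% FBS received two-drug dose matrices for 72 hours. Viability came from CellTiter-Glo 2.0 luminescence and was scaled as inhibition, anchored at 0 by vehicle wells and at 1 by blank wells. Combination Emax is taken as the second-highest inhibition in the matrix, and Bliss excess as the observed combination effect less EA + EB − EA·EB, with EA and EB the single-agent effects.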

[2] = system: LS-513 (Colorectal Carcinoma)
How it was run: as §1

[3] = system: SW756 (Cervical Carcinoma)
How it was run: as §1

[4] = system: DOV13 (Ovarian Carcinoma)
How it was run: as §1

[5] = system: KM-H2 (Hodgkin's Lymphoma)
How it was run: as §1

[6] = system: IGR-1 (Melanoma)
How it was run: as §1

[7] = system: HPAC (Pancreatic Carcinoma)
How it was run: as §1

[8] = system: G-292-Clone-A141B1 (Osteosarcoma)
How it was run: as §1

[9] = system: CAL-78 (Chondrosarcoma)
How it was run: as §1

[10] = system: COR-L95 (Small Cell Lung Carcinoma)
How it was run: as §1

[11] = system: KATOIII (Gastric Carcinoma)
How it was run: as §1

[12] = system: NCI-H2369 (Mesothelioma)
How it was run: as §1

[13] = system: DB (B-Cell Non-Hodgkin's Lymphoma)
How it was run: as §1

[14] = system: SW780 (Bladder Carcinoma)
How it was run: as §1

[15] = system: NCI-H1793 (Lung Adenocarcinoma)
How it was run: as §1

[16] = system: NCI-H2595 (Mesothelioma)
How it was run: as §1

[17] = system: MDA-MB-157 (Breast Carcinoma)
How it was run: as §1

[18] = system: HT-29 (Colorectal Carcinoma)
How it was run: as §1

[19] = system: SW1783 (Low Grade Glioma)
How it was run: as §1

[20] = system: SNU-C5 (Colorectal Carcinoma)
How it was run: as §1

combination Emax [5] | SMILES | combination Emax [1] | combination Emax [2] | combination Emax [3] | combination Emax [4] | combination Emax [6] | combination Emax [7] | combination Emax [8] | combination Emax [9] | combination Emax [10] | combination Emax [11] | combination Emax [12] | combination Emax [13] | combination Emax [14] | combination Emax [15] | combination Emax [16] | combination Emax [17] | combination Emax [18] | combination Emax [19] | combination Emax [20]
0.143 | Cc1c2c(nn1C)CSCc1cc(n(C)n1)CSc1cc(c3ccccc3c1)OCCCc1c(C(=O)O)n(C)c3c-2c(Cl)ccc13 [AZD5991] + C1CN(CCC1(C(=O)N[C@@H](CCO)C2=CC=C(C=C2)Cl)N)C3=NC=NC4=C3C=CN4 [Capivasertib] (first compound max 1 µM, 7x7, partner max 3 µM) | 0.337 | 0.344 | 0.136 | 0.272 | 0.26 | 0.13 | 0.248 | 0.868 | 0.409 | 0.233 | 0.22 | 0.987 | 0.165 | 0.302 | 0.311 | 0.714 | 0.236 | 0.352 | –
0.821 | CN(C)CCCOc1ccc(-c2ccc3ncc4c(c3c2)n(C2CCOCC2)c(=O)n4C)cn1 [AZD0156] + C[C@@H]1COCCN1C2=NC(=NC(=C2)C3(CC3)[S@](=N)(=O)C)C4=C5C=CNC5=NC=C4 [AZD6738] (first compound max 1 µM, 7x7, partner max 10 µM) | 0.829 | 0.822 | 0.322 | 0.888 | 0.523 | 0.761 | 0.263 | 0.41 | 0.525 | 0.519 | 0.187 | 0.628 | 0.138 | 0.455 | 0.12 | 0.914 | 0.823 | 0.257 | 0.807
0.943 | COc1nnc2ccc(N3CCC(c4ccc(OCCN5CCN(C)C(=O)[C@H]5C)cc4)CC3)nn12 [AZD5153] + C=CCn1c(=O)c2cnc(Nc3ccc(N4CCN(C)CC4)cc3)nc2n1-c1cccc(C(C)(C)O)n1 [AZD1775] (first compound max 1 µM, partner max 1 µM) | 0.996 | 0.728 | 0.426 | 0.826 | 0.623 | 0.735 | 0.402 | 0.551 | 0.433 | 0.473 | 0.461 | 0.953 | 0.429 | 0.358 | 0.371 | 0.636 | 0.868 | 0.41 | 0.682

Continued, molecule first:

SMILES | combination Emax [5] | combination Emax [1] | combination Emax [2] | combination Emax [3] | combination Emax [4] | combination Emax [6] | combination Emax [7] | combination Emax [8] | combination Emax [9] | combination Emax [10] | combination Emax [11] | combination Emax [12] | combination Emax [13] | combination Emax [14] | combination Emax [15] | combination Emax [16] | combination Emax [17] | combination Emax [18] | combination Emax [19] | combination Emax [20]
NC1(C(=O)N[C@@H](CCO)c2ccc(Cl)cc2)CCN(c2ncnc3[nH]ccc23)CC1 [Capivasertib] + C[C@@H]1COCCN1C2=NC(=NC(=C2)C3(CC3)[S@](=N)(=O)C)C4=C5C=CNC5=NC=C4 [AZD6738] (first compound max 10 µM, 7x7, partner max 10 µM) | 0.879 | 0.902 | 0.794 | 0.428 | 0.925 | 0.713 | 0.545 | 0.538 | 0.663 | 0.542 | 0.438 | 0.338 | 0.424 | 0.284 | 0.543 | 0.29 | 0.884 | 0.834 | 0.679 | 0.811
C=CCn1c(=O)c2cnc(Nc3ccc(N4CCN(C)CC4)cc3)nc2n1-c1cccc(C(C)(C)O)n1 [AZD1775] + O=C(c1cc(Cc2n[nH]c(=O)c3ccccc23)ccc1F)N1CCN(C(=O)C2CC2)CC1 [Olaparib] (first compound max 1 µM, partner max 10 µM) | 0.961 | 0.977 | 0.827 | 0.35 | 0.802 | 0.296 | 0.649 | 0.294 | 0.446 | 0.639 | 0.198 | 0.258 | 0.912 | 0.209 | 0.379 | 0.179 | 0.723 | 0.818 | 0.342 | 0.567
CN(CCO)CC[C@H](CSc1ccccc1)Nc1ccc(S(=O)(=O)NC(=O)c2ccc(N3CCC([C@@H](O)c4ccccc4-c4ccc(Cl)cc4)CC3)cc2)cc1S(=O)(=O)C(F)(F)F [AZD4320] + C[C@@H](Nc1cc(F)cc(F)c1)c1cc(C(=O)N(C)C)cc2c(=O)cc(N3CCOCC3)oc12 [AZD8186] (first compound max 1 µM, 7x7, partner max 3 µM) | – | 0.719 | 0.708 | 0.373 | 0.916 | 0.901 | 0.562 | 0.799 | 0.7 | 1 | 0.135 | 0.375 | 0.921 | 0.742 | 0.342 | 0.271 | 0.349 | 0.278 | 0.663 | 0.399
